Measured values published in US20080280954A1, “Method of Improving Wakefulness” (VANDA PHARMACEUTICALS, INC, priority 2005, published 2008).
Like-named read-outs stand apart in the source and are kept apart here.

Experiments:
[1] = system: sleep-wakefulness cycle in rats
Protocol: In a first set of experiments, the oral (p.o.) and subcutaneous (s.c.) actions of Compound A were evaluated in the sleep-wakefulness cycle in rats. For this purpose the salt forms multifumarate (mfu) or fumarate (fu) were used.
The experiments were carried out in nonanesthetized unrestrained male Wistar rats prepared with chronically implanted electrodes for the recording of the electrocorticogram (ECoG). The animals were caged in a room, maintained at a constant temperature of 22° C. and artificially lighted for 12 hours daily. Before beginning of the experiment, the animals were given a 1 to 3 day period of acclimatization in the recording cages and had complete freedom of movement even when the recording cables were attached. The ECOG recordings were made continuously during 22 to 23-hours period, 15 min after drug administration. Each animal served as its own control. In one experiment, recordings of EcoG were also obtained after administration of distilled water (vehicle used with Compound A) for comparison with no administration, or administration of Compound A.

[2] = system: sleep-wakefulness cycle in rats with lesions of the nucleus basalis of Meynert (NBM) and locus coeruleus (LC)
Protocol: In a second set of experiment, oral actions of Compound A were evaluated in the sleep-wakefulness cycle in rats with lesions of the nucleus basalis of Meynert (NBM) and locus coeruleus (LC). For this purpose the salt form multifumarate (mfu) was used.
Male rats were used. They were anesthetized with pentobarbital (50 mg/kg i.p.) and positioned in a stereotaxic apparatus with the upper incisor bar set 5 mm (locus coeruleus, LC) or 3.3 mm (Nucleus basalis of Meynert, NBM) below the interaural line. The lesions were carried out with a radio frequency lesion generator at 60° C. in 10 sec. A corresponding group of sham lesioned rats was carried out. The animals were individually kept in single cage during 6 months after the lesions. Five months after lesion, cortical electrodes were implanted. The animals were caged in a room, maintained at a constant temperature of 22° C. and artificially lighted for 12 hours daily. Before beginning of the experiment, the animals were given a 1 day period of acclimatization in the recording cages. These were tall plastic cylinders within the animals had complete freedom of movement even when the recording cables were attached. ECOG recordings were made continuously during 22-hours period/day, 15 min after the installation of the animal or 15 min after drug administration.
Four groups of animals were studied (A1-4), and statistical analysis (T-test, p<0.05) was performed between the different groups.
A1: 5 lesioned animals, which had received 35 days after lesion 3 mg/kg p.o. of
Compound A during 5 days. Implementation of electrodes 5 months later.
Recording of ECOG on the 22d and 23d days after implantation.
A2: Same as A1 but treated with vehicle instead of Compound A.
A3: S Same as A1 but with Sham rats instead of lesioned animals.
A4: Same as A3 but treated with vehicle instead of Compound A.

[3] = 10 mg/kg p.o., 7-11 hours after administration
[4] = 30 mg/kg p.o., first 4 hours of recording
[5] = 3 mg/kg p.o. (mfu) during 5 days, 35 days after lesion, all recording periods

What does the source list for `Cc1nccn1Cc1ccccn1` [Compound A, [2-(2-methylimidazol-1-yl)methyl]pyridine]?
REM sleep duration ([1]; 1 mg/kg s.c., first 2 hours): reduced; wakefulness ([1]; 1 mg/kg s.c., first 4 hours): enhanced; slow-wave sleep (SWS) sleep onset ([1]; 3 mg/kg p.o.): significantly delayed; active waking ([1]; 3 mg/kg p.o., between 0-4 and 7-11 hours): tended to be increased; REM sleep duration ([1]; 3 mg/kg p.o., first 4 hours): reduced; classical sleep ([1]; 3 mg/kg p.o., first 4 hours): reduced; wakefulness ([1]; 3 mg/kg p.o., first 4 hours): increase; active waking ([1]; 3 mg/kg p.o., last recording interval 18.75-23 hours): significantly increased; REM sleep onset ([1]; 10 mg/kg p.o.): strongly delayed; SWS onset ([1]; 10 mg/kg p.o.): tended to also delay; active waking ([1]; 10 mg/kg p.o., 0-4 hours after administration): significantly increased; REM sleep [1, 3]: tended to be increased; SWS duration [1, 3]: decreased; waking time [1, 3]: significantly increased; classical sleep ([1]; 10 mg/kg p.o., during 3 hours): decreased; waking time ([1]; 10 mg/kg p.o., first 6 hours): tended to increase; REM sleep duration ([1]; 10 mg/kg p.o., for several hours): significantly reduced; REM sleep onset ([1]; 30 mg/kg p.o.): strongly delayed; SWS onset ([1]; 30 mg/kg p.o.): strongly delayed; time the decrease of REM sleep lasted ([1]; 30 mg/kg p.o.): about 11 hours; time the increase of wakefulness lasted ([1]; 30 mg/kg p.o.): about 9 hours; REM sleep duration ([1]; 30 mg/kg p.o., 4-7 hours after administration): decreased; REM sleep duration [1, 4]: decreased; SWS duration [1, 4]: decreased; waking time [1, 4]: increased; changes in the rat nycthemeral rhythm ([1]; 3, 10 and 30 mg/kg (mfu) p.o., 3 and 10 mg/kg (fu) p.o., 1, 3 and 10 mg/kg (mfu) s.c., dose dependent): significant changes; effects on sleep-wakefulness cycle compared with oral administration ([1]; 3 and 10 mg/kg s.c.): nearly the same effects as by oral administration; effect availability (s.c. versus p.o. action) ([1]; action quite similar by s.c. and p.o. administration): good; effects on the sleep wakefulness cycle compared with the mfu form ([1]; fu salt form, 3 and 10 mg/kg p.o.): same effects; lesion-induced decrease of classical sleep [2, 5]: partly prevented; lesion-induced increase of wakefulness [2, 5]: partly prevented; alterations of the sleep-wakefulness cycle due to the lesions ([2]; 3 mg/kg p.o. (mfu) during 5 days, 35 days after lesion, recording more than 5 months later, all recording periods): important reduction; nycthemeral cycle abnormalities induced by simultaneous LC+NBM lesions ([2]; several months after last administration): reduce
